From patent publication US20080248134A1, “Oral compositions, use and combinations of N-[2-(dimethylamino)ethyl]-2,6 dimethyl-1-oxo-1,2-dihydrobenzo[b]-1,6-naphthyridine-4-carboxamide and closely related analogues thereof” (Auckland Uniservices Limited, priority 2005, published 2008)

Tests used:
[1] = system: HCT116 human colon carcinoma line, TP53 wild type; experiment: In vitro cell survival, clonogenic assay; assay type: cell-based; conditions: p53 wild-type HCT116, 6 hours exposure
Experimental: (§1) Two HCT116 human colon carcinoma lines, one with TP53 wild type status and one with TP53 mutant status, were exposed to the compound of Formula II for 6 hours. The cells were washed free of drug and surviving cells were measured by clonogenic assay. The concentration for maximal reduction of cell survival was 1% for p53 wild-type cells and 5% for p53 mutant cells. The cytotoxicity of the compound of the present invention was also tested in three Jurkat leukaemia lines, two of which, JLA and JLD, are resistant to topoisomerase inhibitors because of low cellular levels of topoisomerase II.

[2] = system: HCT116 human colon carcinoma line, TP53 mutant; experiment: In vitro cell survival, clonogenic assay; assay type: cell-based; conditions: p53 mutant HCT116, 6 hours exposure
Experimental: as §1

CHrC5 = experiment: In vitro susceptibility to multidrug resistance, continuous exposure IC50; assay type: cell-based, Chinese Hamster
Experimental: (§2) Multidrug resistance mediated by p-glycoprotein and related transport proteins is an important means by which cancer cells evade cytotoxic drugs. […] IC50 values of several drugs were measured in continuous exposure assays in these two cell lines. The resistance factor was calculated as the ratio of these values. High values indicate high susceptibility to resistance.

AuxB1 = experiment: as above; assay type: cell-based, Chinese Hamster; conditions: Cricetulus griseus, AuxB1 (no multidrug resistance)
Experimental: as §2

JLD = experiment: In vitro cell survival assay; assay type: cell-based, human; conditions: resistant line JLD, 0.4 μM, one hour exposure
Experimental: as §1

JLA = experiment: In vitro cell survival assay; assay type: cell-based, human; conditions: resistant line JLA, 0.4 μM, one hour exposure
Experimental: as §1

wild-type Jurkat line = experiment: In vitro cell survival assay; assay type: cell-based, human; conditions: 0.4 μM, one hour exposure
Experimental: as §1

NZEN1 = experiment: Human tumour xenograft; assay type: in vivo; parameters: key to Activity: Active: NCI Criterion for activity tumour volume T/C ≦ 40%; Inactive: NCI Criterion for activity tumour volume T/C ≦ 40%; conditions: NZEN1, Endometrium
Experimental: (§3) The compound of Formula II was evaluated in a number of xenografts using cell lines derived from cervical, endometrial, lung and colon carcinomas, leukaemia and melanoma (Table 3). These studies indicate that the compound according to the present invention has significant activity in xenografts.

Jurkat LA = experiment: Human tumour xenograft; assay type: in vivo; parameters: key to Activity: Active: NCI Criterion for activity tumour volume T/C ≦ 40%; Inactive: NCI Criterion for activity tumour volume T/C ≦ 40%; conditions: Leukaemia
Experimental: as §3

NZC1 = experiment: Human tumour xenograft; assay type: in vivo; parameters: key to Activity: Active: NCI Criterion for activity tumour volume T/C ≦ 40%; Inactive: NCI Criterion for activity tumour volume T/C ≦ 40%; conditions: NZC1, Cervix
Experimental: as §3

HCT116 = experiment: Human tumour xenograft; assay type: in vivo; parameters: key to Activity: Active: NCI Criterion for activity tumour volume T/C ≦ 40%; Inactive: NCI Criterion for activity tumour volume T/C ≦ 40%; conditions: HCT116, Colon
Experimental: as §3

NZM10 = experiment: Human tumour xenograft; assay type: in vivo; parameters: key to Activity: Active: NCI Criterion for activity tumour volume T/C ≦ 40%; Inactive: NCI Criterion for activity tumour volume T/C ≦ 40%; conditions: NZM10, Melanoma
Experimental: as §3

NZM3 = experiment: Human tumour xenograft; assay type: in vivo; parameters: key to Activity: Active: NCI Criterion for activity tumour volume T/C ≦ 40%; Inactive: NCI Criterion for activity tumour volume T/C ≦ 40%; conditions: NZM3, Melanoma
Experimental: as §3

NZMp2 = experiment: Human tumour xenograft; assay type: in vivo; parameters: key to Activity: Active: NCI Criterion for activity tumour volume T/C ≦ 40%; Inactive: NCI Criterion for activity tumour volume T/C ≦ 40%; conditions: NZMp2, Melanoma
Experimental: as §3

[3] = system: NZM4 melanoma line (mutant p53); experiment: Induction of cell cycle arrest, flow cytometry; assay type: cell-based, human; conditions: NZM4, 0.3 μM for one hour, grown up to 9 days
Experimental: (§4) Flow cytometry was used to determine the magnitude and duration of cell cycle arrest induced by the compound of the present invention. Two human melanoma lines were used in a preliminary study, one having wild-type p53 status (NZM6) and one having mutant p53 status (NZM4). Cells were exposed to the compound of Formula II for one hour at a concentration of 0.3 μM, washed free of drug and grown for up to a further 9 days.

[4] = system: NZM6 melanoma line (wild-type p53); experiment: Induction of cell cycle arrest, flow cytometry; assay type: cell-based, human; conditions: NZM6, 0.3 μM for one hour, grown up to 9 days
Experimental: as §4

colon 38 tumours = experiment: Response of colon 38 tumours in immunocompetent and Rag1 immunodeficient mice; assay type: in vivo
Experimental: A single dose of 5.9 mg/kg of the compound of Formula II was administered intraperitoneally to immunocompetent mice in A, while a 5.9 mg/kg dose on days 0 and 7 was administered to Rag 1 immunodeficient mice (see FIG. 13). […] Initial tumour response (apoptosis induction) is similar in normal and immunosuppressed mice. The compound of Formula II appears to induce a change in tumour cells that activates a T-cell mediated response leading to tumour regression. This dependence on T-cells for response might explain why only moderate activity of the compound of Formula II is found in xenografts.

[5] = system: p53, p21 and Fas in HCT116 (TP53 wild type); experiment: Induction of the p53 pathway, western blotting; assay type: cell-based, human
Text: The p53 protein is thought to play a major role in the induction of apoptosis in tumour cells (Levine A J. p53, the cellular gatekeeper for growth and division. Cell. 1997. 88(3):323-331). The p53 protein is a transcriptional activator, which acts in response to DNA damage and other stress pathways, and increases expression of proteins such as Fas and p21^WAF1. […] Products were detected by western blotting.

[6] = P53 not known, tumour volume T/C

In the case of `Cc1cccc2cc3c(=O)n(C)cc(C(=O)NCCN(C)C)c3nc12` [Formula II, N-[2-(dimethylamino)ethyl]-2,6 dimethyl-1-oxo-1,2-dihydrobenzo[b]-1,6-naphthyridine-4-carboxamide], the “maximal reduction of cell survival” value [1] is reported as 1%, the “maximal reduction of cell survival” value [2] is reported as 5% and the IC50 (CHrC5; Cricetulus griseus, CHrC5 (multidrug resistant), continuous exposure) is reported as 5.2 nM. For the same compound, the Resistance factor (CHrC5; ratio of IC50 values in CHrC5 and AuxB1) was 1.5, the IC50 (AuxB1) was 3.5 nM and the survival (JLD) was 100%. For the same compound, the survival (JLA) was 100%, the survival (wild-type Jurkat line) was 28% and the Activity (NZEN1) was “Inactive”. For the same compound, the “% control” value (NZEN1; [6]) was 50%, the Activity (Jurkat LA) was “Active” and the “% control” value (Jurkat LA; P53 Null, tumour volume T/C) was 28%. For the same compound, the Activity (NZC1) was “Active”, the “% control” value (NZC1; [6]) was 38% and the Activity (HCT116) was “Inactive”. The “% control” value (HCT116; P53 W.T., tumour volume T/C) was 70%, the Activity (NZM10) was “Active” and the “% control” value (NZM10; P53 W.T., tumour volume T/C) was 30%. The Activity (NZM3) was “Active”, the “% control” value (NZM3; P53 W.T., tumour volume T/C) was 38% and the Activity (NZMp2) was “Active”. The “% control” value (NZMp2; tumour volume T/C) was 22%, the cell cycle arrest [3] was “minimal effect in G1-phase but an extended effect in G2-phase” and the cell cycle arrest [4] was “extended arrest of NZM6 cells in both G1- and G2-phase”. The “activity against colon 38 tumours” value (colon 38 tumours; Rag1 immunodeficient mice, 5.9 mg/kg on days 0 and 7) was “attenuated”, the “activity against colon 38 tumours” value (colon 38 tumours; immunocompetent mice, single dose of 5.9 mg/kg intraperitoneally) was “active” and the “induction of p53, p21 and Fas” value ([5]; 24 hours at higher cell density (approaching confluence)) was “induced these proteins”. For the same compound, the “induction of p53, p21 and Fas” value ([5]; 24 hours exposure) was “much greater response” and the “induction of p53, p21 and Fas” value ([5]; earlier times (4-10 hours)) was “induced these proteins”.
